Experimental data from patent publication US11339130B1 (Blade Therapeutics, Inc., priority 2016, dated 2022).
Where two headings read alike, the source gives them in different places.

Key:
[1] = molecular target: T1, Human Calpain 1/NS1 (Homo sapiens, UniProt P07384); test: Calpain inhibition continuous fluorescence (FRET) assay, Human Calpain 1/NS1; assay type: biochemical
T1 sequence (P07384 1-714): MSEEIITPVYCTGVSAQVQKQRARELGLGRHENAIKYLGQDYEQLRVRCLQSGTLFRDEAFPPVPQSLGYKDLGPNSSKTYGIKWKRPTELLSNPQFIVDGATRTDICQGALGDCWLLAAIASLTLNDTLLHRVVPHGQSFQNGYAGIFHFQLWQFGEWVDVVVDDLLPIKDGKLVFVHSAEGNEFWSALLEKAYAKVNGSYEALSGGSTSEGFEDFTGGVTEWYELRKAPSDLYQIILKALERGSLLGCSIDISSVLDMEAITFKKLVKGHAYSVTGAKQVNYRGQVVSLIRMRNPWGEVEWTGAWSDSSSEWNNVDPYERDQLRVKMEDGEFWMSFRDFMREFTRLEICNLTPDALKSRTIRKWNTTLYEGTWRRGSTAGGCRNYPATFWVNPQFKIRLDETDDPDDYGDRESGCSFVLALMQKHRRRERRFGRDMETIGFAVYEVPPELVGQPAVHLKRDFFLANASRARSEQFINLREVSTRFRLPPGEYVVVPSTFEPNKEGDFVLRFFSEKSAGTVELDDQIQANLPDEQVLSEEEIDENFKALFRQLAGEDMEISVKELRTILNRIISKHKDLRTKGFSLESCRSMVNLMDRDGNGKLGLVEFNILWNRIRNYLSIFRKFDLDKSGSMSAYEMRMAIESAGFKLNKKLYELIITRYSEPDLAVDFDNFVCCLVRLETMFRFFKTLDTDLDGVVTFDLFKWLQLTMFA
T1 sequence (P04632 1-268 partner): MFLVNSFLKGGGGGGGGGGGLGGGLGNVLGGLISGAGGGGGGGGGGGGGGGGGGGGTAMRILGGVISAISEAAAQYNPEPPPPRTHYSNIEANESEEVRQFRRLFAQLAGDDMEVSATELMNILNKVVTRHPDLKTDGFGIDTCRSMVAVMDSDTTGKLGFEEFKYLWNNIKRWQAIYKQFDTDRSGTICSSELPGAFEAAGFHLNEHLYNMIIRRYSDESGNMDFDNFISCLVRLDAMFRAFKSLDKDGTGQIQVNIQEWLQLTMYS
Outline: (§1)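 Fluorescence increase from the cleaved 5-FAM/QXL 520 substrate, read at 490/520 nm, gave activity. Calcium was supplied with the substrate to activate the enzyme in situ after a 25C enzyme-inhibitor preincubation, and IC50s were fit from initial slopes.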

[2] = molecular target: T2, Human Calpain 2/NS1 (Homo sapiens, UniProt P17655); test: Calpain inhibition continuous fluorescence (FRET) assay, Human Calpain 2/NS1; assay type: biochemical
T2 sequence (P17655 1-700): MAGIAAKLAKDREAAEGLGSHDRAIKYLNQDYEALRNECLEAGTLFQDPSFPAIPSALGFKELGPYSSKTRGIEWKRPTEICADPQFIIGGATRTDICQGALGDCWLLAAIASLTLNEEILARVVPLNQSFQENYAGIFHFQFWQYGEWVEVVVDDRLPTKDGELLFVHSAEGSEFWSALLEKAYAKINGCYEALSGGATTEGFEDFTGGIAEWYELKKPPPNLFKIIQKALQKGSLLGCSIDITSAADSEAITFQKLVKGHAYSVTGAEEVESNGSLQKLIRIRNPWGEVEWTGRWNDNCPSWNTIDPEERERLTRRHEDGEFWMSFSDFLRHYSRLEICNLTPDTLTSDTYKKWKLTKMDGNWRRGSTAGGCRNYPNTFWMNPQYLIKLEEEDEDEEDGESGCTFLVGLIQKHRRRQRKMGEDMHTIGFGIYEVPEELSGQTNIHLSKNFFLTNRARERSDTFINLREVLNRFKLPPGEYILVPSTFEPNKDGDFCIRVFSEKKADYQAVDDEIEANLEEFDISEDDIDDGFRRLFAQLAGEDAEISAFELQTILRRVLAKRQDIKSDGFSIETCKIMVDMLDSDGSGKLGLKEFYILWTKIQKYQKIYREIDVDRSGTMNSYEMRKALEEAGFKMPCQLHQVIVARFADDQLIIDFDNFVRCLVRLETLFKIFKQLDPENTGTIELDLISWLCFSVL
T2 sequence (P04632 1-268 partner): T1 sequence (P04632 1-268 partner)
Outline: as §1

[3] = molecular target: T3, Human Calpain 9/NS1 (Homo sapiens, UniProt O14815); test: Calpain inhibition continuous fluorescence (FRET) assay, Human Calpain 9/NS1; assay type: biochemical
T3 sequence (O14815 1-690): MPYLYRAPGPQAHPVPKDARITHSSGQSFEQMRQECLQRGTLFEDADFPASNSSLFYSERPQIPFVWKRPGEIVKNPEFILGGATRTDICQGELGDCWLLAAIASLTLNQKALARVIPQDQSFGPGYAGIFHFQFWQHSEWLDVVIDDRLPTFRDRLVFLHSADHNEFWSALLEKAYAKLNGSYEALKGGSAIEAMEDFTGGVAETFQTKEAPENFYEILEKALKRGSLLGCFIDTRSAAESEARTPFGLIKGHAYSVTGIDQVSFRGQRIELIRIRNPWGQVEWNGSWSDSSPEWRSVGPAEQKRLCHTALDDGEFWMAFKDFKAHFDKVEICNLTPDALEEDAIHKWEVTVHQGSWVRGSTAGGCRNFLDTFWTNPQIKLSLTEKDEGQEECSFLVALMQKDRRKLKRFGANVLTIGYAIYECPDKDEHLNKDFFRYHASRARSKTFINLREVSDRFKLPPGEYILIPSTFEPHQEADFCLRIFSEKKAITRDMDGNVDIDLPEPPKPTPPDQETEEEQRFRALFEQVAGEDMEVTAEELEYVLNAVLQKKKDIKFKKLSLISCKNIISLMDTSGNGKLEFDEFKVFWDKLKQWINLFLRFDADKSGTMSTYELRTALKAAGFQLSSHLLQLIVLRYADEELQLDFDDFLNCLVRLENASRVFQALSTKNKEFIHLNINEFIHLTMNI
T3 sequence (P04632 1-268 partner): T1 sequence (P04632 1-268 partner)
Outline: as §1

[4] = test system: Calpain activity in SH-SY5Y cells (SBDP-150); test: SH-SY5Y Spectrin western blot assay (SBDP-150 breakdown product, A23187-induced); assay type: cell-based; settings: read-out: SH-SY5Y Spectrin IC50
[5] = test system: Calpain activity in SH-SY5Y cells; test: SH-SY5Y + AMC fluorescence assay (Suc-LLVY-AMC substrate); assay type: cell-based; settings: read-out: SH-SY5Y + AMC IC50
[6] = read-out: Human Calpain 1/NS1 IC50
[7] = read-out: Human Calpain 2/NS1 IC50
[8] = read-out: Human Calpain 9/NS1 IC50
[9] = Homo sapiens, SH-SY5Y cells, A23187-induced SBDP-150, western blot
[10] = Column A, read-out: Human Calpain 1/NS1 IC50
[11] = Column B, read-out: Human Calpain 2/NS1 IC50
[12] = Column C, read-out: Human Calpain 9/NS1 IC50
[13] = Homo sapiens, Column D, SH-SY5Y cells, A23187-induced SBDP-150

Row | Molecule | IC50 [1, 6] | IC50 [2, 7] | IC50 [3, 8] | IC50 [4, 9] | IC50 [5] | also measured
1 | Cn1cc(C(=O)NC(Cc2ccccc2)C(=O)C(N)=O)c(-c2cccc3ccccc23)n1 (stereo not drawn) [Compound 569, N-(4-amino-3,4-dioxo-1-phenylbutan-2-yl)-1-methyl-3-(naphthalen-1-yl)-1H-pyrazole-4-carboxamide] | < 3 µM | < 3 µM | < 3 µM | > 25 µM | 10 to 25 µM | –
2 | COc1ccc(C[C@H](NC(=O)c2cn(C)nc2-c2ccccc2)C(=O)C(N)=O)cc1 [Compound 420, (S)—N-(4-amino-1-(4-methoxyphenyl)-3,4-dioxobutan-2-yl)-1-methyl-3-phenyl-1H-pyrazole-4-carboxamide] | < 3 µM | < 3 µM | < 3 µM | < 10 µM | > 25 µM | –
3 | Cc1cc(C(=O)NC(C=O)Cc2ccccc2)n(-c2ccc(C(F)(F)F)cn2)n1 (stereo not drawn) [Compound 399, 3-methyl-N-(1-oxo-3-phenylpropan-2-yl)-1-(5-(trifluoromethyl)pyridin-2-yl)-1H-pyrazole-5-carboxamide] | < 3 µM | < 3 µM | 3 to 10 µM | > 25 µM | > 25 µM | –
4 | Cn1cc(C(=O)NC(Cc2ccccc2)C(=O)C(N)=O)c(-c2ccnn2C)n1 (stereo not drawn) [Compound 568, N-(4-amino-3,4-dioxo-1-phenylbutan-2-yl)-1,2′-dimethyl-1H,2′H-[3,3′-bipyrazole]-4-carboxamide] | < 3 µM | < 3 µM | < 3 µM | > 25 µM | < 10 µM | –
5 | Cc1cc(C)cc(C[C@H](NC(=O)c2cn(C)nc2-c2ccccc2)C(=O)C(N)=O)c1 [Compound 331] | < 3 µM | < 3 µM | < 3 µM | < 10 µM | > 25 µM | –
6 | Cn1cc(C(=O)NC(Cc2ccccc2)C(=O)C(N)=O)c(-c2ccc3ccccc3c2)n1 (stereo not drawn) [Compound 571, N-(4-amino-3,4-dioxo-1-phenylbutan-2-yl)-1-methyl-3-(naphthalen-2-yl)-1H-pyrazole-4-carboxamide] | < 3 µM | < 3 µM | < 3 µM | > 25 µM | > 25 µM | –
7 | Cn1cc(C(=O)NC(Cc2ccccc2)C(=O)C(N)=O)c(C2CCCCC2)n1 (stereo not drawn) [Compound 573, N-(4-amino-3,4-dioxo-1-phenylbutan-2-yl)-3-cyclohexyl-1-methyl-1H-pyrazole-4-carboxamide] | < 3 µM | < 3 µM | < 3 µM | > 25 µM | < 10 µM | –
8 | Cc1cc(C(=O)N[C@@H](Cc2ccccc2)C(=O)CF)n(-c2ccccc2)n1 [Compound 479, (S)—N-(4-fluoro-3-oxo-1-phenylbutan-2-yl)-3-methyl-1-phenyl-1H-pyrazole-5-carboxamide] | < 3 µM | < 3 µM | < 3 µM | 10 to 25 µM | > 25 µM | –
9 | CC(C)c1cccc(-c2nn(C)cc2C(=O)N[C@@H](Cc2ccccc2)C(=O)C(N)=O)c1 [Compound 180, (S)—N-(4-amino-3,4-dioxo-1-phenylbutan-2-yl)-3-(3-isopropylphenyl)-1-methyl-1H-pyrazole-4-carboxamide] | – | – | – | – | – | IC50 [1, 10]: < 3 µM; IC50 [2, 11]: < 3 µM; IC50 [3, 12]: < 3 µM; IC50 [4, 13]: < 10 µM; IC50 ([5]; Column E): 10 to 25 µM
10 | Cc1cc(C(=O)N[C@@H](Cc2ccccc2)C(=O)C(N)=O)n(-c2cccc(COCc3ccccc3)c2)n1 [Compound 230, (S)—N-(4-amino-3,4-dioxo-1-phenylbutan-2-yl)-1-(3-((benzyloxy)methyl)phenyl)-3-methyl-1H-pyrazole-5-carboxamide] | – | – | – | – | – | IC50 [1, 10]: < 3 µM; IC50 [2, 11]: < 3 µM; IC50 [3, 12]: < 3 µM; IC50 [4, 13]: < 10 µM; IC50 ([5]; Column E): < 10 µM
11 | Cn1cc(C(=O)NC(Cc2ccccc2)C(=O)C(N)=O)c(-c2cc(F)ccc2F)n1 (stereo not drawn) [Compound 518, N-(4-amino-3,4-dioxo-1-phenylbutan-2-yl)-3-(2,5-difluorophenyl)-1-methyl-1H-pyrazole-4-carboxamide] | < 3 µM | < 3 µM | < 3 µM | 10 to 25 µM | < 10 µM | –
12 | (S)—N-(4-amino-3,4-dioxo-1-phenylbutan-2-yl)-4-(2-fluorophenyl)-2-methyloxazole-5-carboxamide [Compound 267] | – | – | – | – | – | IC50 [1, 10]: < 3 µM; IC50 [2, 11]: < 3 µM; IC50 [3, 12]: < 3 µM; IC50 ([4]; Column D, SH-SY5Y cells, A23187-induced SBDP-150): 10 to 25 µM; IC50 ([5]; Column E): < 10 µM
13 | Cc1cc(C(=O)N[C@@H](Cc2ccccc2)C(=O)C(N)=O)n(-c2cccc(CNC(=O)Oc3ccccc3)c2)n1 [Compound 344, Phenyl (S)-(3-(5-((4-amino-3,4-dioxo-1-phenylbutan-2-yl)carbamoyl)-3-methyl-1H-pyrazol-1-yl)benzyl)carbamate] | – | – | – | – | 10 to 25 µM | IC50 [1]: < 3 µM; IC50 [2]: < 3 µM; IC50 [3]: < 3 µM; IC50 ([4]; Homo sapiens, SH-SY5Y): > 25 µM
14 | Cc1cc(F)cc(-c2nn(C(F)F)cc2C(=O)NC(Cc2ccccc2)C(=O)C(N)=O)c1 (stereo not drawn) [Compound 554, N-(4-amino-3,4-dioxo-1-phenylbutan-2-yl)-1-(difluoromethyl)-3-(3-fluoro-5-methylphenyl)-1H-pyrazole-4-carboxamide] | < 3 µM | < 3 µM | < 3 µM | < 10 µM | < 10 µM | –
15 | N-(4-amino-3,4-dioxo-1-phenylbutan-2-yl)-1-methyl-3-(5-methylthiophen-2-yl)-1H-pyrazole-4-carboxamide [Compound 505] | < 3 µM | < 3 µM | < 3 µM | – | > 25 µM | IC50 ([4]; SH-SY5Y cells, A23187-induced SBDP-150, western blot): < 10 µM
